Measurements reported in US10220024B2, “Method of inhibiting cancer cell, method for detecting cancer cell, and system for detecting cancer cell” (CANON KABUSHIKI KAISHA, priority 2012, dated 2019).
Where two headings read alike, the source gives them in different places.

Legend:
[1] = test system: Human pancreas cancer cells, KLM-1; experiment: Cancer cell inhibitory (growth suppressive) action against pancreatic cancer cells, CellTiter-Glo viable cell count; type: cell-based; details: KLM1, KLM-1, 10 μg/mL, 24 hours
Experimental: Observation on cancer cell inhibitory (growth suppressive) action against pancreatic cancer cells Human pancreas cancer cells, KLM-1, were pre-cultured in RPMI1640 medium containing 10% FBS at 37° C. in a 5% CO2 ambient. Thereafter, 4,000 cells were seeded per well of a 96-well plate and further cultured for 24 hours. Subsequently, Compound (1) was added to the medium so as to obtain a final concentration of 10 μg/mL and cultured at 37° C. for 24 hours in a 5% CO2 ambient. The cultured cells were analyzed for viable cell count according to CellTiter-Glo Luminescent Cell Viability Assay (manufactured by Promega KK.). As a reference, the number of cells cultured in a medium containing a 0.1% dimethylsulfoxide solution (hereinafter, simply referred to as DMSO) in place of a medium containing Compound (1), in the aforementioned operation, was regarded (100%).
Viable cell count was analyzed in the same manner as in Experimental Example 1 except that Compound (1) of Experimental Example 1 was changed to compounds shown in Table 2.
Viable cell count was analyzed in the same manner as in Experimental Example 1 except that Compound (1) was changed to comparative compounds 1 to 4.
Viable cell counts of Experimental Examples 1 to 7 and Comparative Examples 1 to 4 were analyzed to obtain growth rates.
Evaluation of cancer cell inhibition against the pancreatic cancer cells (KLM-1) (growth suppression) was made based on the following criteria. Note that the growth rate in Examples herein is a numerical value of the number of cells obtained after culture relative to the number of cells (regarded as 100) grown in a medium containing 0.1% DMSO. Evaluation of cancer cell inhibition against the pancreatic cancer cells (KLM-1) was made as follows. • A: Cancer cell growth rate is less than 20% (cancer cell inhibitory (growth suppressive) effect is extremely high) • B: Cancer cell growth rate is 20% or more and less than 50% (cancer cell inhibitory (growth suppressive) effect is high) • C: Cancer cell growth rate is 50% or more (cancer cell inhibitory (growth suppressive) effect is low)

K562 ALDH (+) cells = experiment: Cancer stem-cell selective staining, fluorescent microscopy, ALDH (+) cells; type: cell-based, Human
Experimental: The cells cultured for 24 hours in Experimental Example 16 were subjected to nuclear staining with Hoechest33342 (manufactured by Dojindo Laboratories) and a fluorescent image observed under AXIOVERT200M inverted fluorescent microscope (manufactured by Carl Zeiss) was photographed.

COc1ccc(N2c3ccc(/C=C/C4=[N+](C)c5ccccc5C4(C)C)cc3C3CCCC32)cc1 (stereo not shown) [Compound 11]
activity at 10 µg/mL ([1]; read-out: Evaluation (cancer cell growth rate)): < 20%
activity at 10 µg/mL ([1]; relative to 0.1% DMSO (100), read-out: Cancer cell growth rate (%)): 2.6%
Selective staining of cancer stem cells (K562 ALDH (+) cells; ALDH (+) versus ALDH (−) K562 cells): selectively stained
ALDH(+) (ratio of ALDH (+) cells stained) (K562 ALDH (+) cells; cells cultured for 24 hours in Experimental Example 16 (1 μg/mL)): 76.7%
